Assay results as given in PubChem BioAssay (NCI).
Several values for one entry are separate records, joined by “and”; a condition that tells them apart may be missing. Equal entries are not always repeated.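 In this assay, cells in 96-well plates receive the compound at five concentrations for 48 hours. Endpoints are linearly interpolated between the surrounding concentrations. Here, GI50 denotes the concentration required for 50% inhibition of growth. TGI: total growth inhibition.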

Columns and labels:
Assay in all cases: growth of human tumour cells (NCI), 48 h
[1] = test system: A498 renal
[2] = test system: EKVX NSCLC
[3] = test system: HOP-62 NSCLC
[4] = test system: NCI-H522 lung
[5] = test system: SK-MEL-2 melanoma
[6] = test system: SNB-19 CNS
[7] = test system: TK-10 renal
[8] = test system: UO-31 renal
[9] = test system: DMS 114 small cell lung
[10] = test system: M19-MEL melanoma

Compound | GI50 [1] [µM] | TGI [1] [µM] | GI50 [2] [µM] | TGI [2] [µM] | GI50 [3] [µM] | TGI [3] | GI50 [4] [µM] | TGI [4] [µM] | GI50 [5] [µM] | TGI [5] [µM] | GI50 [6] [µM] | TGI [6] [µM] | GI50 [7] [µM] | TGI [7] [µM] | GI50 [8] [µM] | TGI [8] [µM] | GI50 [9] [µM] | TGI [9] [µM] | GI50 [10] [µM] | TGI [10] [µM]
CC1(C)CCc2c(c(N=Nc3ccccc3F)c3ccccc3c2O)O1 | 25.9 | > 100 | > 100 | > 100 | 45.3 | > 100 µM | 38.6 | > 100 | > 100 | > 100 | 36.8 | > 100 | 68.2 | > 100 | 54.7 | > 100 |  |  |  | 
O=C1c2ccccc2C(=O)c2c1oc1c2c(=O)[nH]c2ccc(Cl)cc21 | 0.214 | 0.959 | 0.249 | 2.44 | 0.202 | 0.643 µM | 0.318 | 1.4 | 1.75 | 5.18 | 0.312 | 1.1 | 0.379 | 1.1 | 0.195 | 0.605 |  |  |  | 
CC(=O)[CH-]C(C)=O.CC(=O)[CH-]C(C)=O.[Cl-].[O]=[V] |  |  | 30.3 | > 100 |  |  | > 100 | > 100 | 26.8 | 77.1 | 39.9 | > 100 | 24.5 | 60.6 | 63.3 | > 100 | 35.8 | > 100 |  | 
O=C(Nc1cccc(C(F)(F)F)c1)c1ccc(NC2=C(Cl)C(=O)N(Cc3ccccc3)C2=O)cc1 | 24.4 | 45.7 | 23.5 | 54.4 | 13.1 | 25.8 µM | 3.02 | 8.29 | 7.04 | 24.2 | 20.4 | 40.5 | 17.9 | 37.4 | 2.84 | 9.06 |  |  |  | 
Cc1c[nH]c(=O)n(Cc2nnc(CCC(=O)c3nc4ccccc4[nH]3)o2)c1=O | 0.296 | 3.89 | 1.51 | > 100 | 0.967 | > 100 µM | 0.281 | 1.4 | 0.887 | > 23.9 | 1.27 | > 100 | 3.68 | > 80.6 | 2.4 | > 100 |  |  |  | 
COc1ccc(-c2oc3c(OC)c(OC)c(OC)c(O)c3c(=O)c2OC)cc1O |  | 5.93 | 0.317 | > 100 | 0.0478 | 0.877 µM and 4.75 µM |  | < 0.01 |  | 0.221 |  |  |  | 51 | < 0.01 | 5.81 |  | 0.0784 | < 0.01 | 31.8
Cc1ccc(-c2nc(/C=N/Nc3cc(C)nc4ccc(Br)cc34)c(C)o2)cc1 | 3.73 | 20.4 | 9.51 | 21.4 | 1.87 | 3.55 µM | 1.94 | 4.13 | 19.7 | 41.2 | 1.86 | 3.48 | 1.82 | 3.29 | 1.65 | 3.08 |  |  |  | 
C/C(=C\C(C[C@](C)(O)C(O)CCC#C[Si](C)(C)C)S(=O)(=O)c1ccccc1)CC/C=C/CO[Si](C)(C)C(C)(C)C (some centres not stated) |  | 31.9 |  | 38.4 |  | 39.2 µM |  | 33 |  | 44.1 |  | 41.6 |  | 37.7 |  | 36.4 |  | 32.9 |  | 32.5
O=C(CC1(O)C(=O)Nc2ccccc21)c1ccc(Cl)cc1Cl (configuration not stated) |  | > 100 |  | > 100 |  |  |  | > 100 |  | > 100 |  | > 100 |  | > 100 |  | > 100 |  | > 100 |  | > 100
C=CCOc1ccc(N)c([N+](=O)[O-])c1 |  | > 100 |  | > 100 |  | > 100 µM |  | > 100 |  | > 100 |  | > 100 |  | > 100 |  | > 100 |  |  |  | 
COc1cc(NS(C)(=O)=O)ccc1Cc1c2ccccc2nc2ccccc12 | 0.135 | 1.15 | 0.993 | 4.24 | 0.059 | 0.368 µM | 0.0712 | 0.961 | 1.43 | 3.2 | 0.134 | 3.35 | 0.228 | 1.45 | 0.126 | 1.02 |  |  |  | 
CC1=C2[C@@H](CC1)[C@]1(C)O[C@@](C(C)C)(C[C@H]1OC(=O)CO)[C@H]2OC(=O)CCCc1ccccc1 | 6.4 | 19.6 | 15 | 30.8 | 13.4 | 26.8 µM | 7.51 | 24.6 | 11.7 | 27.2 | 12.4 | 24.9 | 18.6 | 32.8 | 3.36 | 14.7 |  |  |  | 
CCCS(=O)(=O)Nc1cccc(Nc2ncnc3cc(NC(=O)CCl)ccc23)c1Cl | 5.47 | 11 | 3.72 | 12.3 | 2.36 | 7.12 µM | 0.432 | 0.913 | 3.58 | 8.92 | 1.35 | 4.58 | 3.21 | 7 | 4.06 | 7.65 |  |  |  | 
N#CC1(N2CCCC2)CCC2(CC1)OCCO2 |  | > 100 |  | > 100 |  | > 100 µM |  | > 100 |  | > 100 |  | > 100 |  | > 100 |  | > 100 |  | > 100 |  | > 10
COc1cc2c(/C=C3/C(=O)Nc4ccc(O)cc43)c(Cl)n(Cc3cc(OC)c(OC)c(OC)c3)c2cc1C | 3.09 | > 30.2 | 2.69 | > 38.5 | 1.65 | 29.4 µM | 0.633 | 4.45 | 1.93 | 13.7 | 3.32 | > 100 | 3.25 | > 24.6 | 3.25 | > 74.4 |  |  |  | 
CN(C)CCN(C)C(=O)c1cccc2cccc(C(=O)O)c12 |  | > 100 |  | > 100 |  | > 100 µM |  |  |  | 38.7 |  | > 100 |  | > 100 |  | > 100 |  | > 100 |  | > 100
